Results from the supplement of paper PMC11061612.

Columns and labels:
[1] = compound: C=CCn1c(=O)c2cnc(Nc3ccc(N4CCN(C)CC4)cc3)nc2n1-c1cccc(C(C)(C)O)n1 [AZD1775]; details: max 3 µM
Method in brief: (§1)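 Viability was measured with CellTiter-Glo 2.0 luminescence after 72 hours of dosing at a final DMSO of typically 0.2%, and scaled between blank-well and DMSO-well means. Beforehand, cancer cell lines sat 24 hours at 37°C and 5% CO2 in 1536-well plates in 7.5 μl DMEM/F12 or RPMI with 10% FBS. A non-linear mixed effects model fitted two-parameter logistic curves to the dose responses. The single-agent IC50 comes from these fits.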

[2] = compound: CS(=O)(=O)CCNCc1ccc(-c2ccc3ncnc(Nc4ccc(OCc5cccc(F)c5)c(Cl)c4)c3c2)o1 [Lapatinib]; details: max 10 µM
Method in brief: as §1

[3] = compound: C[C@@H](c1ccc2nccn2c1)n1nnc2ncc(-c3cnn(C)c3)nc21 [Savolitinib]; details: max 1 µM
Method in brief: as §1

[4] = compound: Cc1nc(-c2cn3c(n2)-c2ccc(-c4cnn(C(C)(C)C(N)=O)c4)cc2OCC3)n(C(C)C)n1 [Taselisib]; details: max 10 µM
Method in brief: as §1

[5] = compound: CC(=O)O[C@H]1C(=O)[C@@]2(C)[C@H]([C@H](OC(=O)c3ccccc3)[C@]3(O)C[C@H](OC(=O)[C@H](O)[C@@H](NC(=O)c4ccccc4)c4ccccc4)C(C)=C1C3(C)C)[C@]1(OC(C)=O)CO[C@@H]1C[C@@H]2O [Paclitaxel]; details: max 3 µM
Method in brief: as §1

[6] = compound: C[C@@H](Oc1cc(-c2cnn(C3CCNCC3)c2)cnc1N)c1c(Cl)ccc(F)c1Cl [Crizotinib]; details: max 10 µM
Method in brief: as §1

[7] = compound: CN(C)CCCOc1ccc(-c2ccc3ncc4c(c3c2)n(C2CCOCC2)c(=O)n4C)cn1 [AZD0156]; details: max 3 µM
Method in brief: as §1

[8] = compound: CC1(C)CCC(CN2CCN(c3ccc(C(=O)NS(=O)(=O)c4ccc(NCC5CCOCC5)c([N+](=O)[O-])c4)c(Oc4cnc5[nH]ccc5c4)c3)CC2)=C(c2ccc(Cl)cc2)C1 [Venetoclax]; details: max 1 µM
Method in brief: as §1

[9] = compound: C1CC(C1)(C(=O)[O-])C(=O)[O-].N.N.[Pt+2] [Carboplatin]; details: max 10 µM
Method in brief: as §1

[10] = compound: Cc1c2c(nn1C)CSCc1cc(n(C)n1)CSc1cc(c3ccccc3c1)OCCCc1c(C(=O)O)n(C)c3c-2c(Cl)ccc13 [AZD5991]; details: max 1 µM
Method in brief: as §1

[11] = compound: C[C@@H]1COCCN1C2=NC(=NC(=C2)C3(CC3)[S@](=N)(=O)C)C4=C5C=CNC5=NC=C4 [AZD6738]; details: max 10 µM
Method in brief: as §1

[12] = compound: C[C@@H](Nc1cc(F)cc(F)c1)c1cc(C(=O)N(C)C)cc2c(=O)cc(N3CCOCC3)oc12 [AZD8186]; details: max 10 µM
Method in brief: as §1

[13] = compound: CCc1c2c(nc3ccc(O)cc13)-c1cc3c(c(=O)n1C2)COC(=O)[C@]3(O)CC [SN-38]; details: max 0.3 µM
Method in brief: as §1

[14] = compound: CC(=O)c1c(C)c2cnc(Nc3ccc(N4CCNCC4)cn3)nc2n(C2CCCC2)c1=O [Palbociclib]; details: max 10 µM
Method in brief: as §1

[15] = compound: O=C(c1cc(Cc2n[nH]c(=O)c3ccccc23)ccc1F)N1CCN(C(=O)C2CC2)CC1 [Olaparib]; details: max 10 µM
Method in brief: as §1

[16] = compound: COc1cc(Nc2ncc3c(n2)-c2ccc(Cl)cc2C(c2c(F)cccc2OC)=NC3)ccc1C(=O)O [Alisertib]; details: max 10 µM
Method in brief: as §1

[17] = compound: CC1=C(C(=CC=C1)Cl)NC(=O)C2=CN=C(S2)NC3=CC(=NC(=N3)C)N4CCN(CC4)CCO [Dasatinib]; details: max 2 µM
Method in brief: as §1

[18] = compound: N#Cc1cnc(Nc2cc(NC[C@H]3CNCCO3)c(C(F)(F)F)cn2)cn1 [SRA737]; details: max 10 µM
Method in brief: as §1

[19] = compound: Cc1cc2ncnn2cc1Nc1ncc2c(n1)n(C1CCOCC1)c(=O)n2C [AZD7648]; details: max 10 µM
Method in brief: as §1

[20] = compound: COc1cccc2c1C(=O)c1c(O)c3c(c(O)c1C2=O)C[C@@](O)(C(=O)CO)C[C@@H]3O[C@H]1C[C@H](N)[C@H](O)[C@H](C)O1 [Doxorubicin]; details: max 1 µM
Method in brief: as §1

[21] = compound: CCN(CCO)CCCOc1ccc2c(Nc3cc(CC(=O)Nc4cccc(F)c4)[nH]n3)ncnc2c1 [AZD2811]; details: max 1 µM
Method in brief: as §1

[22] = compound: COc1nnc2ccc(N3CCC(c4ccc(OCCN5CCN(C)C(=O)[C@H]5C)cc4)CC3)nn12 [AZD5153]; details: max 1 µM
Method in brief: as §1

[23] = compound: COc1cc2ncnc(Nc3ccc(F)c(Cl)c3)c2cc1OCCCN1CCOCC1 [Gefitinib]; details: max 10 µM
Method in brief: as §1

[24] = compound: COc1cccc(OCCCN)c1-c1cc(Nc2cnc(C#N)cn2)n[nH]1 [Prexasertib]; details: max 1 µM
Method in brief: as §1

[25] = compound: CC(C)n1c(=O)n(C)c2cnc3cc(F)c(-c4ccc(OCCCN5CCCCC5)nc4)cc3c21 [AZD1390]; details: max 0.3 µM
Method in brief: as §1

[26] = compound: CC1=CN2[C@@H](C1)C=NC3=CC(=C(C=C3C2=O)OC)OCCCCCOC4=C(C=C5C(=C4)N=C[C@@H]6CC(=CN6C5=O)C)OC [SG3199]; details: max 0.001 µM
Method in brief: as §1

[27] = compound: Cn1cnc2c(F)c(Nc3ccc(Br)cc3Cl)c(C(=O)NOCCO)cc21 [Selumetinib]; details: max 10 µM
Method in brief: as §1

[28] = compound: C1CN(CCC1(C(=O)N[C@@H](CCO)C2=CC=C(C=C2)Cl)N)C3=NC=NC4=C3C=CN4 [AZD5363]; details: max 10 µM
Method in brief: as §1

[29] = compound: COc1cc([C@@H]2c3cc4c(cc3[C@@H](O[C@@H]3O[C@@H]5CO[C@@H](C)O[C@H]5[C@H](O)[C@H]3O)[C@H]3COC(=O)[C@H]23)OCO4)cc(OC)c1O [Etoposide]; details: max 10 µM
Method in brief: as §1

[30] = compound: Nc1ccn([C@@H]2O[C@H](CO)[C@@H](O)C2(F)F)c(=O)n1 [Gemcitabine]; details: max 0.3 µM
Method in brief: as §1

[31] = compound: O=C(Nc1ccc2[nH]nc(-c3ccncc3)c2c1)[C@@H]1CCN(CC(=O)N2CCN(c3ccc(-c4ncccn4)cc3)CC2)C1; details: max 5 µM
Method in brief: as §1

[32] = compound: CN(CC[C@H](CSC1=CC=CC=C1)NC2=C(C=C(C=C2)S(=O)(=O)NC(=O)C3=CC=C(C=C3)N4CCC(CC4)[C@H](C5=CC=CC=C5C6=CC=C(C=C6)Cl)O)S(=O)(=O)C(F)(F)F)CCO [AZD4320]; details: max 1 µM
Method in brief: as §1

[33] = compound: O=c1[nH]cc(F)c(=O)[nH]1 [5-Fluorouracil]; details: max 20 µM
Method in brief: as §1

[34] = compound: NC1(c2ccc(-c3nc4ccn5c(=O)[nH]nc5c4cc3-c3ccccc3)cc2)CCC1 [MK-2206]; details: max 10 µM
Method in brief: as §1

[35] = compound: CC(=O)Nc1cccc(-n2c(=O)n(C3CC3)c(=O)c3c(Nc4ccc(I)cc4F)n(C)c(=O)c(C)c32)c1 [Trametinib]; details: max 1 µM
Method in brief: as §1

Cell Line | IC50, cell viability 72 h [1] [µM] | IC50, cell viability 72 h [2] [µM] | IC50, cell viability 72 h [3] [µM] | IC50, cell viability 72 h [4] [µM] | IC50, cell viability 72 h [5] [µM] | IC50, cell viability 72 h [6] [µM] | IC50, cell viability 72 h [7] [µM] | IC50, cell viability 72 h [8] [µM] | IC50, cell viability 72 h [9] [µM] | IC50, cell viability 72 h [10] [µM] | IC50, cell viability 72 h [11] [µM] | IC50, cell viability 72 h [12] [µM] | IC50, cell viability 72 h [13] [µM] | IC50, cell viability 72 h [14] [µM] | IC50, cell viability 72 h [15] [µM] | IC50, cell viability 72 h [16] [µM] | IC50, cell viability 72 h [17] [µM] | IC50, cell viability 72 h [18] [µM] | IC50, cell viability 72 h [19] [µM] | IC50, cell viability 72 h [20] [µM] | IC50, cell viability 72 h [21] [µM] | IC50, cell viability 72 h [22] [µM] | IC50, cell viability 72 h [23] [µM] | IC50, cell viability 72 h [24] [µM] | IC50, cell viability 72 h [25] [µM] | IC50, cell viability 72 h [26] [µM] | IC50, cell viability 72 h [27] [µM] | IC50, cell viability 72 h [28] [µM] | IC50, cell viability 72 h [29] [µM] | IC50, cell viability 72 h [30] [µM] | IC50, cell viability 72 h [31] [µM] | IC50, cell viability 72 h [32] [µM] | IC50, cell viability 72 h [33] [µM] | IC50, cell viability 72 h [34] [µM] | IC50, cell viability 72 h [35] [µM]
ACHN (Kidney Carcinoma) | 0.116 | 8.52 | > 1 | 6.33 | 0.461 | > 10 | > 3 | > 1 | > 10 | > 1 | 0.97 | > 10 | 0.0127 | 4.94 | > 10 | 9.51 | 0.179 | 1.58 | > 10 | 0.264 | > 1 | 0.623 | 3.43 | 0.0108 | > 0.3 | > 0.001 | > 10 | > 10 | 5.5 | 0.0201 | > 5 | > 1 | > 20 | > 10 | > 1
AMO-1 (Plasma Cell Myeloma) | 0.633 | 6.71 | > 1 | 3.41 | < 0.003 | 3 | > 3 | > 1 | > 10 | 0.0186 | 3.18 | > 10 | 0.0184 | > 10 | > 10 | 0.192 | > 2 | 2.01 | > 10 | 0.169 | > 1 | 0.0366 | > 10 | 0.00882 | > 0.3 | > 0.001 | > 10 | 6.03 | 1.68 | 0.0153 | > 5 | > 1 | > 20 | 1.15 | > 1
BT-549 (Breast Carcinoma) | 2.52 | > 10 | > 1 | > 10 | 0.0253 | > 10 | > 3 | > 1 | > 10 | > 1 | > 10 | > 10 | 0.171 | > 10 | > 10 | > 10 | > 2 | > 10 | > 10 | > 1 | > 1 | 0.531 | > 10 | 0.592 | > 0.3 | > 0.001 | > 10 | > 10 | 9.22 | > 0.3 | > 5 | > 1 | > 20 | > 10 | > 1
Ca9-22 (Head and Neck Carcinoma) | 0.714 | 2.14 | > 1 | 1.37 | 0.00745 | 9.4 | > 3 | > 1 | > 10 | > 1 | 2.37 | > 10 | 0.0105 | > 10 | > 10 | 7.14 | 0.229 | > 10 | > 10 | 0.931 | > 1 | 0.35 | 3.84 | 0.0313 | > 0.3 | > 0.001 | > 10 | > 10 | > 10 | 0.0732 | 4.67 | > 1 | > 20 | > 10 | 0.657
Caov-4 (Ovarian Carcinoma) | 0.816 | > 10 | > 1 | > 10 | 0.545 | > 10 | > 3 | > 1 | > 10 | 0.993 | 3.19 | > 10 | 0.0116 | > 10 | > 10 | > 10 | > 2 | 4.02 | > 10 | 0.253 | > 1 | 0.719 | > 10 | 0.0126 | > 0.3 | > 0.001 | > 10 | > 10 | 6.04 | 0.0785 | 3.33 | > 1 | > 20 | 9.35 | 0.108
